{"source": "patent US10711002B2", "about": "“Purine compounds and method for the treatment of cancer” (THE ROYAL INSTITUTION FOR THE ADVANCEMENT OF …, priority 2016, dated 2020)"}
{"biological_target": "PRKCQ (PKC theta) (Homo sapiens, UniProt Q04759)", "assay": "High-throughput kinase assay", "type": "biochemical", "settings": "50 nM; read-out: Percent inhibition of kinase activity in vitro, PRKCQ (PKC theta)", "method": "(§1) Screening of Compounds 1-4 against several kinases identified two prominent targets of these compounds as the Aurora A kinase and calcium dependent protein kinase C isoforms α, βI, βII and […] (Tables 1 to 3). IC50s for these two targets were obtained by plotting inhibition levels at 500 nM, 100 nM, 50 nM and 10 nM (FIG. 3). These kinases are directly involved in pathways controlling cell differentiation programs, metastasis signaling, as well as EMT and CSC programming and their overexpression was reported to predict decreased metastasis-free survival.", "units": {"inhibition at 0.05 µM": "%"}}
{"smiles": "O=C1c2ccccc2CN1c1nc(NC2CCCCC2)c2nc[nH]c2n1", "note": "[SLLN-6C, reference compound]", "inhibition at 0.05 µM": 0}
{"biological_target": "AKT1 (PKB alpha) (Homo sapiens, UniProt P31749)", "sequence (P31749 whole entry)": "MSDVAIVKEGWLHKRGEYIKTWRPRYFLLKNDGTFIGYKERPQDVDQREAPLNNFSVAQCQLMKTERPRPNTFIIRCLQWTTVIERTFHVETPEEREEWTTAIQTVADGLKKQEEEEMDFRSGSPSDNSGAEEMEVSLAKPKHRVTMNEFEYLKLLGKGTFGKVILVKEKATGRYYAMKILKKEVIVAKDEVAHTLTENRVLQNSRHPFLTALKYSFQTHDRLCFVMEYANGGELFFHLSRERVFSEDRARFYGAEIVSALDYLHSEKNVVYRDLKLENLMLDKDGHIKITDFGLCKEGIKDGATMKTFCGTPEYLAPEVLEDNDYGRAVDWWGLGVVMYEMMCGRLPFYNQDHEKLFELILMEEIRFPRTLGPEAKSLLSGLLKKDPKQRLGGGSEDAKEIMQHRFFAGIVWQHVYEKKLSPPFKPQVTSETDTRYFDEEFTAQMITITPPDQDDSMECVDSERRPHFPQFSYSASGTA", "assay": "High-throughput kinase assay", "type": "biochemical", "settings": "100 nM; read-out: Percent inhibition of kinase activity in vitro, AKT1 (PKB alpha)", "method": "as §1", "units": {"inhibition at 0.1 µM": "%"}}
{"smiles": "O=C1c2ccccc2CN1c1nc(NC2CCCCC2)c2nc[nH]c2n1", "note": "[SLLN-6C, reference compound]", "inhibition at 0.1 µM": 2}
{"biological_target": "SRC (Homo sapiens, UniProt P12931)", "assay": "High-throughput kinase assay", "type": "biochemical", "settings": "100 nM; read-out: Percent inhibition of kinase activity in vitro, SRC", "method": "as §1", "units": {"inhibition at 0.1 µM": "%"}}
{"smiles": "O=C1c2ccccc2CN1c1nc(NC2CCCCC2)c2nc[nH]c2n1", "note": "[SLLN-6C, reference compound]", "inhibition at 0.1 µM": 3}
{"biological_target": "PRKCA (PKC alpha) (Homo sapiens, UniProt P17252)", "assay": "High-throughput kinase assay", "type": "biochemical", "settings": "50 nM; read-out: Percent inhibition of kinase activity in vitro, PRKCA (PKC alpha)", "method": "as §1", "units": {"inhibition at 0.05 µM": "%"}}
{"smiles": "O=C1c2ccccc2CN1c1nc(NC2CCCCC2)c2nc[nH]c2n1", "note": "[SLLN-6C, reference compound]", "inhibition at 0.05 µM": 14}
{"biological_target": "PRKCA (PKC alpha) (Homo sapiens, UniProt P17252)", "assay": "High-throughput kinase assay", "type": "biochemical", "settings": "100 nM; read-out: Percent inhibition of kinase activity in vitro, PRKCA (PKC alpha)", "method": "as §1", "units": {"inhibition at 0.1 µM": "%"}}
{"smiles": "O=C1c2ccccc2CN1c1nc(NC2CCCCC2)c2nc[nH]c2n1", "note": "[SLLN-6C, reference compound]", "inhibition at 0.1 µM": 0}
{"biological_target": "YES1 (Homo sapiens, UniProt P07947)", "assay": "High-throughput kinase assay", "type": "biochemical", "settings": "100 nM; read-out: Percent inhibition of kinase activity in vitro, YES1", "method": "as §1", "units": {"inhibition at 0.1 µM": "%"}}
{"smiles": "O=C1c2ccccc2CN1c1nc(NC2CCCCC2)c2nc[nH]c2n1", "note": "[SLLN-6C, reference compound]", "inhibition at 0.1 µM": 5}
{"biological_target": "RET (Homo sapiens, UniProt P07949)", "assay": "High-throughput kinase assay", "type": "biochemical", "settings": "100 nM; read-out: Percent inhibition of kinase activity in vitro, RET", "method": "as §1", "units": {"inhibition at 0.1 µM": "%"}}
{"smiles": "O=C1c2ccccc2CN1c1nc(NC2CCCCC2)c2nc[nH]c2n1", "note": "[SLLN-6C, reference compound]", "inhibition at 0.1 µM": 6}
{"biological_target": "MET (cMet) (Homo sapiens, UniProt P08581)", "sequence (P08581 25-1390)": "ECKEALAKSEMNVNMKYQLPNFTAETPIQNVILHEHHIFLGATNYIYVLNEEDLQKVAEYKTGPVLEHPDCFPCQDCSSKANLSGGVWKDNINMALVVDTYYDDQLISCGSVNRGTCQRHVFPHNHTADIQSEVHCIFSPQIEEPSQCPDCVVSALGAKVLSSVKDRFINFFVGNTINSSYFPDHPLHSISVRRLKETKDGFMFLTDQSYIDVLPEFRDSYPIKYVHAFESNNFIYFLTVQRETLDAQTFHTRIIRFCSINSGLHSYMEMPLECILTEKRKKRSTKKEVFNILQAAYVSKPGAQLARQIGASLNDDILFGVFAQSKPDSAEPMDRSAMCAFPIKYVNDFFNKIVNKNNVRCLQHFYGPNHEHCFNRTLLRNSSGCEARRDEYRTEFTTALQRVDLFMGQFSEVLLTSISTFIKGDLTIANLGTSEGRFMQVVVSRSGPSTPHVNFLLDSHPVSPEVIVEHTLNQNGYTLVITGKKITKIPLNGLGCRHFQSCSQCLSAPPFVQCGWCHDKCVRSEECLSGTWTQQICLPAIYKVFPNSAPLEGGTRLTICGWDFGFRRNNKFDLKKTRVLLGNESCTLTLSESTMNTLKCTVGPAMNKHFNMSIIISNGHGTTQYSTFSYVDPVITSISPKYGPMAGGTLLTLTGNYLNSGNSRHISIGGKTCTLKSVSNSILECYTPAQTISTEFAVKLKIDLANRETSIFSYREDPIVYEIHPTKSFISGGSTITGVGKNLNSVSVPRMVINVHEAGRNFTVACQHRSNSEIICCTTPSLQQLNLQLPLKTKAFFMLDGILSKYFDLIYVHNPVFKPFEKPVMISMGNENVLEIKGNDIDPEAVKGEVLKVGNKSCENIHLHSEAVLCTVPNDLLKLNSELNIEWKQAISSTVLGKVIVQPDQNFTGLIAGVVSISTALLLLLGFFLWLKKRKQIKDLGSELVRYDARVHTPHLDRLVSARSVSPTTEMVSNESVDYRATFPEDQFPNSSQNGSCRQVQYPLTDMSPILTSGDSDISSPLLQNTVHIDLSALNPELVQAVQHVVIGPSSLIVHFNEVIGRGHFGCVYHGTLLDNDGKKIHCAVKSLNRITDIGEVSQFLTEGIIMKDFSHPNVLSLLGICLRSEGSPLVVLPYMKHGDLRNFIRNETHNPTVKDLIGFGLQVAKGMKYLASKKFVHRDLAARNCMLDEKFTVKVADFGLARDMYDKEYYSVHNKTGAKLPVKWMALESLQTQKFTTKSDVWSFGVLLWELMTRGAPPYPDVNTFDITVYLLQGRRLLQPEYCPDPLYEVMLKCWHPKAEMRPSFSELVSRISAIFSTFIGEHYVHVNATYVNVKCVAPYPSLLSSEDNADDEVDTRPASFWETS", "assay": "High-throughput kinase assay", "type": "biochemical", "settings": "100 nM; read-out: Percent inhibition of kinase activity in vitro, MET (cMet)", "method": "as §1", "units": {"inhibition at 0.1 µM": "%"}}
{"smiles": "O=C1c2ccccc2CN1c1nc(NC2CCCCC2)c2nc[nH]c2n1", "note": "[SLLN-6C, reference compound]", "inhibition at 0.1 µM": 0}
{"biological_target": "PIK3CA/PIK3R1 (Homo sapiens, UniProt P42336)", "assay": "High-throughput kinase assay", "type": "biochemical", "settings": "100 nM; read-out: Percent inhibition of kinase activity in vitro, PIK3CA/PIK3R1", "method": "as §1", "units": {"inhibition at 0.1 µM": "%"}}
{"smiles": "O=C1c2ccccc2CN1c1nc(NC2CCCCC2)c2nc[nH]c2n1", "note": "[SLLN-6C, reference compound]", "inhibition at 0.1 µM": 0}
{"biological_target": "IGF1R (Homo sapiens, UniProt P08069)", "assay": "High-throughput kinase assay", "type": "biochemical", "settings": "100 nM; read-out: Percent inhibition of kinase activity in vitro, IGF1R", "method": "as §1", "units": {"inhibition at 0.1 µM": "%"}}
{"smiles": "O=C1c2ccccc2CN1c1nc(NC2CCCCC2)c2nc[nH]c2n1", "note": "[SLLN-6C, reference compound]", "inhibition at 0.1 µM": 0}
{"biological_target": "FGFR1 (Homo sapiens, UniProt P11362)", "assay": "High-throughput kinase assay", "type": "biochemical", "settings": "100 nM; read-out: Percent inhibition of kinase activity in vitro, FGFR1", "method": "as §1", "units": {"inhibition at 0.1 µM": "%"}}
{"smiles": "O=C1c2ccccc2CN1c1nc(NC2CCCCC2)c2nc[nH]c2n1", "note": "[SLLN-6C, reference compound]", "inhibition at 0.1 µM": 0}
{"biological_target": "PTK2 (FAK) (Homo sapiens, UniProt Q05397)", "sequence (Q05397 whole entry)": "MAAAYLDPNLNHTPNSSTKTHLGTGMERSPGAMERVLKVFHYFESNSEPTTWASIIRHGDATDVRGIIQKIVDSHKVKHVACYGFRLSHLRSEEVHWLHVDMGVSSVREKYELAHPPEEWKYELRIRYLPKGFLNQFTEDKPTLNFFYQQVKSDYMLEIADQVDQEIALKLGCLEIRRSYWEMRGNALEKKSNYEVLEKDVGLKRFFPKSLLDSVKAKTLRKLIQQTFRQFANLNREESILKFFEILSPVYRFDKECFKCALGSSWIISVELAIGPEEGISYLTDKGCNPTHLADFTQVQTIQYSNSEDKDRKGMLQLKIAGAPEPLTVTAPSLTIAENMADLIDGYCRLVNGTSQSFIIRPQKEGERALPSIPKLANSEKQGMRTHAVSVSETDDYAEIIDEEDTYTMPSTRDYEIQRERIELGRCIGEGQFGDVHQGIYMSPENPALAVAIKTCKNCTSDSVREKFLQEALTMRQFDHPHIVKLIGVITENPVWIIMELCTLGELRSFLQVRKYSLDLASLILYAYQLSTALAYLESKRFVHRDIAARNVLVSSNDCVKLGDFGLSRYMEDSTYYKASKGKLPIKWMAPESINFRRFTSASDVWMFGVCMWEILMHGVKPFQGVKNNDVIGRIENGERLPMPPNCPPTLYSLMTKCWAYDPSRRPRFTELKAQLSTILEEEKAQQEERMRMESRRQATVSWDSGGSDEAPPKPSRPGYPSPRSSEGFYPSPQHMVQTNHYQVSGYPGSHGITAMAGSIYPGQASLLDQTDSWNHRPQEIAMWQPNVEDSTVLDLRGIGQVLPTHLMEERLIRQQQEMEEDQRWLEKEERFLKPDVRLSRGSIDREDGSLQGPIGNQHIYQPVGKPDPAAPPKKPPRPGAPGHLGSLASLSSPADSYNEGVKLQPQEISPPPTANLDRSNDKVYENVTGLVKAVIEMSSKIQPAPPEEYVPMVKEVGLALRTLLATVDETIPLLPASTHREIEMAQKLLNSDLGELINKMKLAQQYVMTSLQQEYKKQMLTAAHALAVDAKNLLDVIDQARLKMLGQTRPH", "assay": "High-throughput kinase assay", "type": "biochemical", "settings": "100 nM; read-out: Percent inhibition of kinase activity in vitro, PTK2 (FAK)", "method": "as §1", "units": {"inhibition at 0.1 µM": "%"}}
{"smiles": "O=C1c2ccccc2CN1c1nc(NC2CCCCC2)c2nc[nH]c2n1", "note": "[SLLN-6C, reference compound]", "inhibition at 0.1 µM": 3}
{"biological_target": "T1, AURKA (Aurora A) (Homo sapiens, UniProt O14965)", "T1 sequence (O14965 1-403)": "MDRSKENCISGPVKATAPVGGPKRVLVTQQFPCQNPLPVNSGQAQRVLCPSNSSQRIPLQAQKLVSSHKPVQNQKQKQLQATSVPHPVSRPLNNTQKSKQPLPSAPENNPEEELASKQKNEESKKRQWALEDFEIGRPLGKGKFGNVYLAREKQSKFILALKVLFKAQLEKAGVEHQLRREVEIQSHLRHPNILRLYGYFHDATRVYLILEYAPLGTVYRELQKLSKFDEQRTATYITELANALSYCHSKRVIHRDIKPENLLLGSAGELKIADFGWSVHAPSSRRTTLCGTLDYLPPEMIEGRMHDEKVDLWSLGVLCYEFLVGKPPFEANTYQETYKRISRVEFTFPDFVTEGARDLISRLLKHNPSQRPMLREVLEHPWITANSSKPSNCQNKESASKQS", "assay": "High-throughput kinase assay", "type": "biochemical", "settings": "100 nM; read-out: Percent inhibition of kinase activity in vitro, AURKA (Aurora A)", "method": "as §1", "units": {"inhibition at 0.1 µM": "%"}}
{"smiles": "O=C1c2ccccc2CN1c1nc(NC2CCCCC2)c2nc[nH]c2n1", "note": "[SLLN-6C, reference compound]", "inhibition at 0.1 µM": 4}
{"biological_target": "FRAP1 (mTOR) (Homo sapiens, UniProt P42345)", "assay": "High-throughput kinase assay", "type": "biochemical", "settings": "100 nM; read-out: Percent inhibition of kinase activity in vitro, FRAP1 (mTOR)", "method": "as §1", "units": {"inhibition at 0.1 µM": "%"}}
{"smiles": "O=C1c2ccccc2CN1c1nc(NC2CCCCC2)c2nc[nH]c2n1", "note": "[SLLN-6C, reference compound]", "inhibition at 0.1 µM": 0}
{"biological_target": "FLT1 (VEGFR1) (Homo sapiens, UniProt P17948)", "sequence (P17948 27-1338)": "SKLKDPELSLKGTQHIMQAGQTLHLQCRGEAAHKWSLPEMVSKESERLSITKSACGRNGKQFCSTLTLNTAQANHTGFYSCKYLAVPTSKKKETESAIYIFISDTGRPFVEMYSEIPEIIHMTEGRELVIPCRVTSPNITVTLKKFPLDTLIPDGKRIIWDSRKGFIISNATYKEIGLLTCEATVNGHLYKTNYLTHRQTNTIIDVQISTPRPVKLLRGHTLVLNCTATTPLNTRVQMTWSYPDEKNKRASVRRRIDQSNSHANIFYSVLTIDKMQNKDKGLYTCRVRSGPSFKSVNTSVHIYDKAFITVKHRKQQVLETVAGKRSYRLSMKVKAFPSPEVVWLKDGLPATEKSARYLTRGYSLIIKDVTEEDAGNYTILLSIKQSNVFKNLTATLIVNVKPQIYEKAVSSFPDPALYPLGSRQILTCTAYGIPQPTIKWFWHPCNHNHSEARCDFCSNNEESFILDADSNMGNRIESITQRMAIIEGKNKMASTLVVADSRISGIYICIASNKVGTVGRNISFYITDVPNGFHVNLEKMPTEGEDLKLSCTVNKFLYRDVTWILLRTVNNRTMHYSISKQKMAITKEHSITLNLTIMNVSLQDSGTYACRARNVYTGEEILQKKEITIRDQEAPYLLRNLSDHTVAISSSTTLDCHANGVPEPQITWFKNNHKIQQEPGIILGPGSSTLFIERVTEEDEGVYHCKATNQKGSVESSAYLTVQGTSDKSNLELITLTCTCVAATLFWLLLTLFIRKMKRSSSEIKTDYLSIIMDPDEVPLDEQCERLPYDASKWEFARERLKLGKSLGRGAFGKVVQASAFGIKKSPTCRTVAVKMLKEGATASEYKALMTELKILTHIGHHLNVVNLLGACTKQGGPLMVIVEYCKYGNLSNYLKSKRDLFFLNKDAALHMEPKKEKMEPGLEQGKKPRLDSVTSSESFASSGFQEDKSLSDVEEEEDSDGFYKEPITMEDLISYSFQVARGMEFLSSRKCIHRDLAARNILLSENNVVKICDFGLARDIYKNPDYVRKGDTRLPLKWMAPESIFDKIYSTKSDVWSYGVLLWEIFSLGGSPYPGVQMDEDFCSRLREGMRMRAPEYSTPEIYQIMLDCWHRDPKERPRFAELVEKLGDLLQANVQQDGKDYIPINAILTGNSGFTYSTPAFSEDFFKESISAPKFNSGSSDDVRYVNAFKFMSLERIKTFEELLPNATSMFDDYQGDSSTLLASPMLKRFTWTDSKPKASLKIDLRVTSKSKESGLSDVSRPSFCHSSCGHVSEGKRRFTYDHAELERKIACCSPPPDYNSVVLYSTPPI", "assay": "High-throughput kinase assay", "type": "biochemical", "settings": "100 nM; read-out: Percent inhibition of kinase activity in vitro, FLT1 (VEGFR1)", "method": "as §1", "units": {"inhibition at 0.1 µM": "%"}}
{"smiles": "O=C1c2ccccc2CN1c1nc(NC2CCCCC2)c2nc[nH]c2n1", "note": "[SLLN-6C, reference compound]", "inhibition at 0.1 µM": 0}
{"biological_target": "LCK (Homo sapiens, UniProt P06239)", "assay": "High-throughput kinase assay", "type": "biochemical", "settings": "100 nM; read-out: Percent inhibition of kinase activity in vitro, LCK", "method": "as §1", "units": {"inhibition at 0.1 µM": "%"}}
{"smiles": "O=C1c2ccccc2CN1c1nc(NC2CCCCC2)c2nc[nH]c2n1", "note": "[SLLN-6C, reference compound]", "inhibition at 0.1 µM": 8}
{"biological_target": "EEF2K (Homo sapiens, UniProt O00418)", "assay": "High-throughput kinase assay", "type": "biochemical", "settings": "100 nM; read-out: Percent inhibition of kinase activity in vitro, EEF2K", "method": "as §1", "units": {"inhibition at 0.1 µM": "%"}}
{"smiles": "O=C1c2ccccc2CN1c1nc(NC2CCCCC2)c2nc[nH]c2n1", "note": "[SLLN-6C, reference compound]", "inhibition at 0.1 µM": 1}
{"biological_target": "PRKCD (PKC delta) (Homo sapiens, UniProt Q05655)", "assay": "High-throughput kinase assay", "type": "biochemical", "settings": "50 nM; read-out: Percent inhibition of kinase activity in vitro, PRKCD (PKC delta)", "method": "as §1", "units": {"inhibition at 0.05 µM": "%"}}
{"smiles": "O=C1c2ccccc2CN1c1nc(NC2CCCCC2)c2nc[nH]c2n1", "note": "[SLLN-6C, reference compound]", "inhibition at 0.05 µM": 0}
{"biological_target": "JAK2 (Homo sapiens, UniProt O60674)", "assay": "High-throughput kinase assay", "type": "biochemical", "settings": "100 nM; read-out: Percent inhibition of kinase activity in vitro, JAK2", "method": "as §1", "units": {"inhibition at 0.1 µM": "%"}}
{"smiles": "O=C1c2ccccc2CN1c1nc(NC2CCCCC2)c2nc[nH]c2n1", "note": "[SLLN-6C, reference compound]", "inhibition at 0.1 µM": 7}
